# Data reported in patent US20190060284A1, “PHARMACOLOGICAL MODULATORS OF NAV1.1 VOLTAGE-GATED SODIUM CHANNELS ASSOCIATED WITH MECHANICAL PAIN” (priority 2016, published 2019).
# “Also recorded” adds a separate entry of the source. Like-named read-outs stand apart in the source and are kept apart here.
# Experiments:
# [1] = system: NTG induced mechanical allodynia; assay: NTG-induced hind paw mechanical allodynia (migraine model); format: in vivo, mouse; details: for allodynia threshold compared to baseline threshold: 75 and 120 min
# Protocol: NTG-induced hind paw mechanical allodynia. Mechanical thresholds were determined with von Frey monofilaments (VFF; eight filaments, range 0.008-2 g, Stoelting Co) using the Dixon up-and-down method^51. For drug testing, 48 naive C57Bl/6 male mice (20-30 g) were divided randomly to the following groups (n=12 mice per group): Vehicle/Cyclodextrin, Vehicle/Compound B 75 mg/kg, NTG/Cyclodextrin, and NTG/Compound B 75 mg/kg. Prior to testing all animals were handled for 1 week in the behavior room during mid-morning using the cupped hand technique^52. On each testing day, a maximum of 12 animals was used, divided equally into the four groups. Mice were confined in clear acrylic cages (8.7″×8.7″×5″) divided into four chambers, each on a raised wire mesh platform that allowed full access to the tested paws. Mice were acclimated for two hours, on the day of testing and one day prior. Mechanical thresholds were evaluated before (baseline), and 75 and 120 min after i.p. administration of 10 mg/kg NTG (or vehicle), in accordance with NTG's time-to-peak-effect (TPE) in this model (data not shown). 40% Cyclodextrin in saline or 75 mg/kg Compound B dissolved in 40% cyclodextrin in saline, was administered contralateral to NTG administration thirty minutes before the first post-NTG time point, in accordance with compound B's TPE. Each filament was applied perpendicular to the center of each of the hind paw five times, spaced 1 sec apart, starting with the middle VFF (0.4 g). In the absence of a response, the next VFF in the series was applied until a response was witnessed. Response to VFF was recorded as an immediate withdrawal of the tested hind paw to the applied stimulus, with or without an observed licking behavior. The withdrawal threshold was quantified as the mean of both hind paws. The experimenter was blind to the treatment group.
# [2] = system: splanchnic colonic afferents (high-threshold mechanoreceptors); assay: Ex vivo gut-nerve single-unit recordings; format: cell-based, mouse; details: for mechanosensitivity of colonic nociceptors: Compound B 100 μM; for Hm1a-induced mechanical hypersensitivity in the presence of the blocker: Hm1a 100 nM, ICA 500 nM or Compound B 100 μM
# Protocol: In vitro single-unit extracellular recordings of action potential discharge were made from splanchnic colonic afferents. Recordings were made from healthy or CVH mice using standard protocols^61-63. Baseline mechanosensitivity was determined in response to application of a 2 g von frey hair (vfh) probe to the afferent receptive field for 3 seconds. This process was repeated 3-4 times, separated each time by 10 seconds. Mechanosensitivity was then re-tested after the application of Hm1a (100 nM) or the Nav1.1 blocker ICA-121432 (500 nM) or a combination of both ICA-121432 (500 nM) and Hm1a (100 nM). Data are presented as spikes/s and are expressed as mean±SEM.
# Colitis was induced by administration of TNBS as described previously^62,63. Briefly, 13 week old anaesthetized mice were administered an intra-colonic enema of 0.1 mL TNBS (130 μg/mL in 30% EtOH) via a polyethylene catheter^62,63,66. Histological examination of mucosal architecture, cellular infiltrate, crypt abscesses, and goblet cell depletion confirmed significant TNBS-induced damage by day 3 post-treatment, which largely recovered by day 7, and fully recovered by 28 days. […] As such, they are termed ‘chronic visceral hypersensitivity’ (CVH) mice^62,63,66,68.
# Ex vivo single-unit extracellular recordings of action potential discharge were made from splanchnic colonic afferents. Recordings were made from healthy or CVH mice using standard protocols (e.g. Brierley, S. M., Jones, R. C., III, Gebhart, G. F. & Blackshaw, L. A. Splanchnic and pelvic mechanosensory afferents signal different qualities of colonic stimuli in mice. Gastroenterology 127, 166-178 (2004)). Baseline mechanosensitivity was determined in response to application of a 2-g Von Frey hair probe to the afferent receptive field for 3 s. This process was repeated 3-4 times, separated each time by 10 s. Mechanosensitivity was then re-tested after the application of Hm1a (100 nM) or the Nav1.1 blocker compound B (100 μM) or a combination thereof. Instantaneous frequency is defined as the inverse of the time interval between an action potential and the previous action potential. Group data are presented as spikes per second and are expressed as mean±s.e.m.
# [3] = system: cultured somatosensory neurons (TG, DRG); assay: Ratiometric calcium imaging of cultured sensory neurons; format: cell-based, mice or rats
# [4] = system: mechanical response thresholds; assay: Von Frey mechanical response thresholds after intraplantar toxin; format: in vivo, mouse; details: 500 nM in 10 μl intraplantar, WT mice, 30 minutes after injection
# Protocol: For behavioral experiments in FIG. 4, adult mice (6-12 weeks) were used. Male and female mice were first considered separately in hindpaw nocifensive response experiments. […] Therefore, male and female behavioral responses were pooled and subsequent experiments were performed on both male and female mice for CKO and WT littermate experiments, or only male mice for other conditions (e.g. Cap ablation). Nocifensive responses were recorded during a 20 minute observation period immediately following intraplantar injections (10 μl PBS with or without 5 μM Hm1a). Licking/biting behavior was scored as seconds of behavior with the experimenter blinded to injection condition and experimental cohort (WT, CKO or Cap Ablated mice). Hargreaves and Von Frey tests were performed 30 minutes after intraplantar injection of 500 nM Hm1a or Hm1b. I.t. cap ablation was performed as previously described^34, and i.t. cap treated mice were tested on a hot plate to ensure ablation of TRPV1+afferents. Ablation was also confirmed by histology.
# [5] = Hm1a-sensitive P0 mouse TG neurons
molecule,measurement,setting,value
Cc1c(C(N)=O)nnn1Cc1ccccc1 [Compound B],NTG induced tactile allodynia,[1]; Compound B 75 mg/kg in 40% cyclodextrin in saline,able to reverse NTG induced tactile allodynia
same,allodynia threshold compared to baseline threshold,[1]; NTG 10 mg/kg i.p. + Compound B 75 mg/kg,no significant difference
same,allodynia threshold compared to baseline threshold,[1]; Vehicle + Compound B 75 mg/kg,no significant difference
same,mechanosensitivity of colonic nociceptors,"[2]; CVH mice, ICA-121431 500 nM",reduced mechanosensitivity in a sub-population; also recorded: inhibition of mechanosensitivity of a subpopulation
same,Hm1a-induced mechanical hypersensitivity in the presence of the blocker,[2]; CVH mice,not affected by the presence of Hm1a; also recorded: prevents Hm1a-induced potentiation
same,mechanosensitivity of colonic nociceptors,[2]; healthy mice,inhibits the mechanosensitivity; also recorded: inhibition of mechanosensitivity of a subpopulation
same,Hm1a-induced mechanical hypersensitivity in the presence of the blocker,[2]; healthy mice,inhibits the sensitizing effect of Hm1a toxin; also recorded: prevents Hm1a-induced potentiation
O=C(Nc1ccc(S(=O)(=O)Nc2nccs2)cc1)C(c1ccccc1)c1ccccc1 [ICA-121431],Hm1a-evoked calcium responses,"[3]; blocker 500 nM, Hm1a 500 nM, embryonic DRG and P0 mouse TG cultures",greatly diminishes
same,responses to SGTx1,[3]; in presence of ICA-121431,only partially blocks
same,CVH sensitized fibers with reduced mechanosensory responses,"[2]; CVH mice, blocker 500 nM",70%
same,subpopulation of CVH colonic afferents inhibited (inhibited/fibers),"[2]; CVH mice, blocker 500 nM",7/10
same,mechanosensitivity of colonic nociceptors,"[2]; CVH mice, ICA-121431 500 nM",levels resembling those of baseline controls
same,Hm1a-induced mechanical hypersensitivity in the presence of the blocker,[2]; CVH mice,blocks the sensitizing effects of Hm1a
same,Hm1a-induced mechanical hypersensitivity in the presence of the blocker,"[2]; CVH mice, listed as ICA-121432",failed to induce mechanical hypersensitivity
same,fibers in which mechanical responses are reduced and Hm1a sensitization blocked,"[2]; healthy mice, blocker 500 nM",50%
same,population of colonic afferents inhibited (inhibited/fibers),"[2]; healthy mice, blocker 500 nM",5/10
same,Hm1a-induced mechanical hypersensitivity in the presence of the blocker,[2]; healthy mice,blocks Hm1a sensitization
same,Hm1a-induced mechanical hypersensitivity in the presence of the blocker,"[2]; healthy mice, listed as ICA-121432",failed to induce mechanical hypersensitivity
NC1=N[C@H](O)[C@H]2[C@H]3O[C@]4(O)O[C@@H]([C@@H](O)[C@@]2(N1)[C@@H]4O)[C@]3(O)CO [Tetrodotoxin],Hm1a-evoked calcium responses,[3],blocked
COc1cc(CNC(=O)CCCC/C=C/C(C)C)ccc1O [capsaicin],toxin-sensitive P0 neurons that respond to the agonist (in words),[3]; [5],only a third
NC(N)=NC(N)=Nc1cccc(Cl)c1 [mCPBG],toxin-sensitive cells that also respond to the agonist,[3]; [5],52%
CC1CCC(C(C)C)C(O)C1 (centres unmarked) [menthol],toxin-sensitive cells that also respond to the agonist,[3],38%
C=CCN=C=S [mustard oil],toxin-sensitive cells that also respond to the agonist,[3]; [5],< 13%
CCCCC[C@H](O)/C=C/[C@H]1[C@H](O)CC(=O)[C@@H]1C/C=C\CCCC(=O)O [prostaglandin E2],percentage of toxin sensitive cells,[3]; sensitization of adult neurons prior to toxin exposure,greatly enhances
SGTx1,cohort of neurons excited compared with Hm1a,[3]; TG and embryonic DRG neurons,excites a larger cohort of TG and embryonic DRG neurons than Hm1a
δ-theraphotoxin-Hm1b,sensitization to mechanical stimulation,[4],Equivalent mechanical sensitization
